Source: paper PMC4876393, “Structure of the Dictyostelium Myosin-II Heavy Chain Kinase A (MHCK-A) α-kinase domain apoenzyme reveals a novel autoinhibited conformation” (Scientific Reports, 2016)
Non-standard residues stand in square brackets, D forms with d. Residues, ends and D or L forms follow the SMILES beside them. pT = C[C@@H](OP(=O)(O)O)[C@H](N)C(=O)O

Experiments:
eEF2K = test system: eEF2K; parameters: method as in PMID 22115317; settings: with and without Ca^2+-calmodulin; ref [40]; cited from earlier work
A-CAT D663A = assay: mant-nucleotide binding to A-CAT D663A; parameters: species or system Dictyostelium
Procedure: (§1) Assays were carried out at 22 °C in a buffer containing 2 mM MgCl2, 1 mM dithiothreitol and 20 mM TES, pH 7.0. Kinase assays contained 20 μM myelin basic protein (MBP), 0.5–2 μM A-CAT and 200 μM [γ-^32P]ATP (specific activity 100 cpm/pmol). At each time point, 20 μl aliquots of the reaction mixture were spotted onto squares of Whatman P81 phosphocellulose paper, which were then washed 1% phosphoric acid, immersed in ScintiVerse Universal LS Mixture (Fisher Scientific), and counted using a Beckman LS 9000 scintillation counter. Assays to measure A-CAT-Δ809 activity in the presence of the QQG(p)TMVMPD and QQG(p)TMSMPD peptides were carried out as described. ATPase activity was assayed using 250 μM ATP and release of inorganic phosphate (Pi) was measured using the Pi ColorLock Gold phosphate detection system (Innova Biosciences). Data from the initial linear portion of the time courses were used to calculate kinase and ATPase activity. Nucleotide binding assays using mant-ATP and mant-ADP were carried out as previously described. Results represent the mean and standard deviation of at least 3 separate experiments.

A-CAT D663S = assay: mant-nucleotide binding to A-CAT D663S; parameters: species or system Dictyostelium
Procedure: as §1

A-CAT Y647F = assay: mant-nucleotide binding to A-CAT Y647F; parameters: species or system Dictyostelium; settings: 22 °C, 2 mM MgCl2, 1 mM dithiothreitol, 20 mM TES, pH 7.0, mean and standard deviation of at least 3 separate experiments
Procedure: as §1

A-CAT Y647A = assay: mant-nucleotide binding to A-CAT Y647A; parameters: species or system Dictyostelium
Procedure: as §1

[1] = test system: T1, Nc1ncnc2c1ncn2[C@@H]1O[C@H](COP(=O)(O)OP(=O)(O)OP(=O)(O)O)[C@@H](O)[C@H]1O; assay: ATPase assay by inorganic phosphate release (Pi ColorLock Gold) at 22 °C in 2 mM MgCl2, 1 mM dithiothreitol, 20 mM TES, pH 7.0.; assay type: biochemical
T1 construct: A-CAT: alpha-kinase domain and Thr825 autophosphorylation site of MHCK-A
Procedure: as §1

[2] = test system: T1, Nc1ncnc2c1ncn2[C@@H]1O[C@H](COP(=O)(O)OP(=O)(O)OP(=O)(O)O)[C@@H](O)[C@H]1O; assay: Radiometric kinase assay with [γ-32P]ATP and 20 μM myelin basic protein as phosphate acceptor (P81 paper) at 22 °C in 2 mM MgCl2, 1 mM dithiothreitol, 20 mM TES, pH 7.0.; assay type: biochemical
Procedure: as §1

A-CAT WT = target: T2, A-CAT WT (Dictyostelium discoideum, UniProt P42527); assay: Nucleotide binding assay with fluorescent mant-ADP on purified A-CAT, carried out as previously described (ref 51); at least 3 separate experiments.; settings: SD, n = 3
T2 construct: gene mhkA; A-CAT: alpha-kinase domain and Thr825 autophosphorylation site of MHCK-A; expressed in E. coli
T2 sequence (P42527 552-841): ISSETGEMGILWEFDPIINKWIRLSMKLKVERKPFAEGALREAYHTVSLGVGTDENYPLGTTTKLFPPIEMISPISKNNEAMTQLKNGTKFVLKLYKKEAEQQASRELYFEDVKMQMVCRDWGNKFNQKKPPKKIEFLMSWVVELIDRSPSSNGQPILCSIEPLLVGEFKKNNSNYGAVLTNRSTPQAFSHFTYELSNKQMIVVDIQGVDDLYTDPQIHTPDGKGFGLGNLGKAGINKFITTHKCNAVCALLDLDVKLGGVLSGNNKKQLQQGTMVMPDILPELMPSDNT
Procedure: as §1

D663A = target: T3, D663A (Dictyostelium discoideum, UniProt P42527, D663A); assay: as above; settings: read-out: mant-ADP Kd; SD, n = 3
T3 construct: gene mhkA; A-CAT: alpha-kinase domain and Thr825 autophosphorylation site of MHCK-A; expressed in E. coli
T3 sequence (P42527 552-841 D663A): T2 sequence (P42527 552-841)
Procedure: as §1

D663S = target: T4, D663S (Dictyostelium discoideum, UniProt P42527, D663S); assay: as above; settings: read-out: mant-ADP Kd; SD, n = 3
T4 construct: gene mhkA; A-CAT: alpha-kinase domain and Thr825 autophosphorylation site of MHCK-A
T4 sequence (P42527 552-841 D663S): T2 sequence (P42527 552-841)
Procedure: as §1

Y647A = target: T5, Y647A (Dictyostelium discoideum, UniProt P42527, Y647A); assay: as above; settings: read-out: mant-ADP Kd; SD, n = 3
T5 construct: gene mhkA; A-CAT: alpha-kinase domain and Thr825 autophosphorylation site of MHCK-A
T5 sequence (P42527 552-841 Y647A): T2 sequence (P42527 552-841)
Procedure: as §1

[3] = test system: T6, Nc1ncnc2c1ncn2[C@@H]1O[C@H](COP(=O)(O)OP(=O)(O)OP(=O)(O)O)[C@@H](O)[C@H]1O; assay: ATPase assay by inorganic phosphate release (Pi ColorLock Gold) at 22 °C in 2 mM MgCl2, 1 mM dithiothreitol, 20 mM TES, pH 7.0.; assay type: biochemical
T6 construct: A-CAT: alpha-kinase domain and Thr825 autophosphorylation site of MHCK-A; expressed in E. coli
Procedure: as §1

[4] = test system: T6, Nc1ncnc2c1ncn2[C@@H]1O[C@H](COP(=O)(O)OP(=O)(O)OP(=O)(O)O)[C@@H](O)[C@H]1O; assay: Radiometric kinase assay with [γ-32P]ATP and 20 μM myelin basic protein as phosphate acceptor (P81 paper) at 22 °C in 2 mM MgCl2, 1 mM dithiothreitol, 20 mM TES, pH 7.0.; assay type: biochemical
Procedure: as §1

A-CAT-Δ809 = target: T7, A-CAT-Δ809 (Dictyostelium discoideum, UniProt P42527); assay: Activation of truncated A-CAT-Δ809 kinase activity by phosphopeptides (Pi-pocket binding); assay type: biochemical; settings: 22 °C, pH 7.0, mean and standard deviation of at least 3 separate experiments
T7 construct: A-CAT encompasses the α-kinase domain and Thr825 autophosphorylation site of MHCK-A; made in house; host or cells: E. coli (printed for A-CAT and A-CAT-D663A)
T7 sequence (P42527 552-809 limits assumed): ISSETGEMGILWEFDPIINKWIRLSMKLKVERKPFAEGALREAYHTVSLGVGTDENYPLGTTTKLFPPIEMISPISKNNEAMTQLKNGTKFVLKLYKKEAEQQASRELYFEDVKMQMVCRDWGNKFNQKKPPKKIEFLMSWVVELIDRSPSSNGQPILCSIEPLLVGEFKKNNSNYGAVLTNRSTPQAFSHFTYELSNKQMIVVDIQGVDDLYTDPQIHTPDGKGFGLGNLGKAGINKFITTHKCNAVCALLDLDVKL
Procedure: (c) The kinase activity of A-CAT-Δ809 was assayed in the presence of peptides with the sequences QQG(p)TMVMPD (closed circles) or a QQG(p)TMSMPD (open circles). […] Kinase activities are reported as a percentage of wild-type A-CAT activity.
To test whether a hydrophobic residue in the P + 2 position favors binding to the Pi-pocket, experiments were carried out using a truncated A-CAT (A-CAT-Δ809) that lacks the activating Thr825 site of autophosphorylation and two phosphopeptides: one with a valine and one with a serine at the P + 2 position (QQG(p)TMVMPD and QQG(p)TMSMPD) (Fig. 3c).
Assays were carried out at 22 °C in a buffer containing 2 mM MgCl2, 1 mM dithiothreitol and 20 mM TES, pH 7.0. Kinase assays contained 20 μM myelin basic protein (MBP), 0.5–2 μM A-CAT and 200 μM [γ-^32P]ATP (specific activity 100 cpm/pmol). At each time point, 20 μl aliquots of the reaction mixture were spotted onto squares of Whatman P81 phosphocellulose paper, which were then washed 1% phosphoric acid, immersed in ScintiVerse Universal LS Mixture (Fisher Scientific), and counted using a Beckman LS 9000 scintillation counter. Assays to measure A-CAT-Δ809 activity in the presence of the QQG(p)TMVMPD and QQG(p)TMSMPD peptides were carried out as described[29]. […] Data from the initial linear portion of the time courses were used to calculate kinase and ATPase activity.

In the case of `Nc1ncnc2c1ncn2[C@@H]1O[C@H](COP(=O)(O)OP(=O)(O)OP(=O)(O)O)[C@@H](O)[C@H]1O` [ATP], the “ATP binding to eEF2K” value (eEF2K) is given as “binds ATP in the presence and absence of Ca^2+-calmodulin” and the “UV cross-linking of ATP to eEF2K” value (eEF2K) is given as “can be UV cross-linked to ATP only in the presence of Ca^2+-calmodulin”.
For `CNc1ccccc1C(=O)O[C@H]1[C@@H](O)[C@H](n2cnc3c(N)ncnc32)O[C@@H]1COP(=O)(O)OP(=O)(O)OP(=O)(O)O` [mant-ATP], the Kd (A-CAT D663A; A-CAT D663A, 22 °C, 2 mM MgCl2, 1 mM dithiothreitol, 20 mM TES, pH 7.0, mean and standard deviation of at least 3 separate experiments) was 3.2 ± 0.9 µM, the “effect of the D663A mutation on nucleotide binding” value (A-CAT D663A; compared with wild-type A-CAT) was “increased the affinity of A-CAT for nucleotide” and the Kd (A-CAT D663S; A-CAT D663S, 22 °C, 2 mM MgCl2, 1 mM dithiothreitol, 20 mM TES, pH 7.0, mean and standard deviation of at least 3 separate experiments) was 2.1 ± 0.5 µM. The “effect of the D663S mutation on nucleotide binding” value (A-CAT D663S; compared with wild-type A-CAT) was “increased the affinity of A-CAT for nucleotide”, the Kd (A-CAT Y647F) was 4.3 ± 1 µM and the Kd (A-CAT Y647A; A-CAT Y647A, 22 °C, 2 mM MgCl2, 1 mM dithiothreitol, 20 mM TES, pH 7.0, mean and standard deviation of at least 3 separate experiments) was 10 ± 3 µM. For the same compound, the “effect of the Y647A mutation on nucleotide binding” value (A-CAT Y647A; compared with wild-type A-CAT) was “weakened the binding”.
Work on D663S (Dictyostelium discoideum; D663S) yielded a Km [1] of 31 ± 7 µM, a kcat [1] of 0.00733 ± 0.00267 s⁻¹ and a Km [2] of 29 ± 16 µM. It also gave a kcat [2] of 0.00103 ± 0.000117 s⁻¹.
`CNc1ccccc1C(=O)O[C@H]1[C@@H](O)[C@H](n2cnc3c(N)ncnc32)O[C@@H]1COP(=O)(O)OP(=O)(O)O` [mant-ADP, 2'/3'-O-(N-methylanthraniloyl)adenosine 5'-diphosphate] showed a Kd (A-CAT WT) of 15 ± 2 µM, a Kd (D663A) of 8 ± 2 µM and a Kd (D663S) of 12 ± 2 µM. It also gave a Kd (Y647A) of 30 ± 2 µM.
For Y647A (Dictyostelium discoideum; Y647A), the kcat [1] was 0.00483 ± 0.00117 s⁻¹, the Km [2] was 162 ± 38 µM and the kcat [2] was 0.00367 ± 0.000333 s⁻¹.
In the case of D663A (Dictyostelium discoideum; D663A), the Km [3] is reported as 21 ± 5 µM, the kcat [3] is reported as 0.0167 ± 0.00333 s⁻¹ and the Km [4] is reported as 54 ± 25 µM. It also gave a kcat [4] of 0.00105 ± 0.000117 s⁻¹.
`CSCC[C@H](NC(=O)[C@@H](NC(=O)CNC(=O)[C@H](CCC(N)=O)NC(=O)[C@@H](N)CCC(N)=O)[C@@H](C)OP(=O)(O)O)C(=O)N[C@@H](CO)C(=O)N[C@@H](CCSC)C(=O)N1CCC[C@H]1C(=O)N[C@@H](CC(=O)O)C(=O)O` [QQG(p)TMSMPD] (H-QQG[pT]MSMPD-OH) showed a Kd (A-CAT-Δ809; hyperbolic fit of A-CAT-Δ809 kinase activity vs peptide, assayed as described in ref [29], 2 mM MgCl2, 1 mM dithiothreitol, 20 mM TES) of 98 ± 12 µM and a Vmax (A-CAT-Δ809; kinase activity as a percentage of wild-type A-CAT activity, hyperbolic fit) of 51 ± 3%.
